# From patent US12070457B2, “Substituted pyridines, pyridazines, pyrimidines, and 1,2,3-triazines as bruton's tyrosine kinase inhibitors” (HUTCHISON MEDIPHARMA LIMITED, priority 2020, dated 2024)
# Assay: Stability test in liver microsomes (rat)
# Format: in vitro ADME
# Conditions: 1 μM compound
# Procedure, shortened: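 Compound (1 μM final) incubated 30 min at 37 °C with male CD-1 mouse or male SD rat pooled liver microsomes (0.5 mg/mL) in 50 mM phosphate buffer with 3 mM MgCl2, 1 mM EDTA and NADPH-regenerating system. Quenched with acetonitrile containing internal standard; LC-MS/MS gives percent remaining relative to 0-min sample.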
smiles,measurement,setting,value
C[C@H]1CN(C2COC2)CCN1c1ccc(Nc2cc(-c3ccnc(-n4ccn5c6c(cc5c4=O)CC(C)(C)C6)c3CO)cn(C)c2=O)nc1 [Compound 19],stability in rat liver microsomes compared with reference GDC-0853,"0.5 mg/mL liver microsomes, 30 minutes incubation",better than that of the reference GDC-0853
same,"RLM, percentage of remaining compound after 30 minutes of incubation","rat liver microsomes, 30 min",92.7%
